In article PMC4222488, “Lipid droplet binding thalidomide analogs activate endoplasmic reticulum stress and suppress hepatocellular carcinoma in a chemically induced transgenic mouse model” (Lipids in Health and Disease, 2013):

How the values were obtained:
[1] = Acute toxicity (data not shown); assay type: in vivo
[2] = Tissue distribution by fluorescent confocal microscopy of native tissue sections after i.v. injection; assay type: in vivo; details: mice, i.v. 20 mg/kg
Protocol: Mice were injected i.v. with Ac-915 or Ac-2010 (20 mg/kg) and after different time points tissues were dissected, washed in PBS, embedded in Tissue-Tek® O.C.T™ medium. After fast-freezing, the samples were stored at −20°C. Tissue sections (20 μm) were prepared by using a Leica CM1950 cryostat at −20°C. From each tissue (liver, brain, kidney, muscle, heart) three independent images were recorded as above. Images were analyzed with the Olympus Fluoview 1.6 Ver Viewer software.
To determine the tissue distribution of trifluor-amino-phtalimides, compounds were administered by i.v. injection into mice, the animals were killed at different time points and different organs were dissected. Native microscope sections were prepared and analyzed under fluorescent microscope. Because our analogs have strong inherent blue fluorescence, relative tissue distribution can be determined by using fluorescent microscopy with 405 nm laser with DAPI configuration. […] The target organs of Ac-915 seemed to be the kidney and preferentially, the liver.

SMILES	Acute toxicity compared with Ac-915 [1]	Fluorescence in the liver [2]	Time of peak fluorescence in the liver [2] [h]	Fluorescence in the kidney ([2]; 2 and 4 h after administration)	Fluorescence in the brain ([2]; 1 h after administration)	Fluorescence in the heart ([2]; 4 h after administration)
CC(C)c1cccc(C(C)C)c1N1C(=O)c2c(F)c(F)c(F)c(NC(=O)NC(=O)CCl)c2C1=O [Ac-2010]	higher acute toxicity					
CC(C)c1cccc(C(C)C)c1N1C(=O)c2c(F)c(F)c(F)c(N[C@@H]3C=CS(=O)(=O)C3)c2C1=O [Ac-915, 2-[2,6-bis(propane-2-yl)phenyl]-4-{[(3R)-1,1-dioxo-2,3-dihydro-thiophene-3-yl]amino}-5,6,7-trifluoro-2,3-dihydro-1H-isoindole-1,3-dione]		strong fluorescent signals	4	strong signals	only a slight fluorescence increase	minor fluorescence increase
